What was measured:
[1] = system: Escherichia coli IFO 12734; test: Effectiveness in treating experimental infectious disease, Escherichia coli; format: in vivo, mice (ddY-SPF) infected with Escherichia coli; settings: of 20 mice; 1.4×10^8 cells i.p.; 500 mg/kg orally two times, just after and after 4 hours; all untreated died on second day
Description: (§1) Each of 20 mice of a group was infected by intraperitoneal inoculation of Escherichia coli IFO 12734 or Staphylococcus aureus IAM 1011, and just after or after 4 hours of the inoculation, each of the compounds represented by the formula (I) was orally administered to the inoculated mouse at a dose rate of 500 mg/kg body weight.
(§2) Cells in number of 1.4×10^8 of Escherichia coli IFO 12734 were intraperitoneally inoculated to each of 40 ddY-SPF mice, and each of 20 mice of the 40 mice was administered two times just after and after 4 hours of the inoculation with each 500 mg of the compound produced in Example 4 per kg of body weight orally, and the other 20 mice were kept untreated.

[2] = system: Staphylococcus aureus IAM 1011; test: Effectiveness in treating experimental infectious disease, Staphylococcus aureus; format: in vivo, mice (ddY-SPF) infected with Staphylococcus aureus; settings: of 20 mice; 2.3×10^8 cells i.p.; 500 mg/kg orally two times; all untreated died on second day
Description: as §1, §2
Quite the same experiments as in (10-1) except for intraperitoneously inoculating Staphylococcus aureus IAM 1011 in number of 2.3×10^8instead of 1.4×10^8 cells of E. coli was carried out by administering two times with each 500 mg of the compound produced in Example 4. As a result, all the 20 mice inoculated and not administered died on the second day of inoculation, however, more than 70% of the inoculated and administered 20 mice were alive even on the 7th day of inoculation.

[3] = system: Staphylococcus aureus IAM 1011; test: Anti-bacterial activity, agar plate dilution method (MIC), Staphylococcus aureus; format: cell-based; settings: 18 to 24 hours, 37° C.
Description: (§3) 3-1: The minimum growth-inhibiting concentration (MIC) of each of the compounds represented by the formula (I) was measured according to the standard procedures of Japan Society of Chemotherapy against each of the following bacterial species:
Staphylococcus aureus, IAM 1011
(§4) Anti-bacterial activity of each of the compounds produced in Examples 1 to 6 was measured according to the standard procedures of Japan Society of Chemotherapy in agar plate dilution method as follows:
(§5) As a test bacterial species, Escherichia coli IFO 12734 and Staphylococcus aureus IAM 1011, and each strain was inoculated into Mueller-Hinton's culture medium for 18 to 48 hours at 37° C., and while using the thus cultured bacteria, each of the test bacterial liquid containing 10^6 cells in one ml was prepared.
(§6) Separately, after preparing each series of diluted aqueous solutions of each of the compounds produced in Examples 1 to 6, respectively, each of them was mixed in amount of 1/9 time by weight with the Mueller-Hinton's culture medium and each flat agar culture plate was prepared by using the thus formed mixture.

[4] = system: Escherichia coli IFO 12734; test: Anti-bacterial activity, agar plate dilution method (MIC), Escherichia coli; format: cell-based; settings: 18 to 24 hours, 37° C.
Description: as §3
Escherichia coli, IFO 12734 and
as §4, §5, §6

[5] = system: Staphylococcus aureus IAM 1011; test: Model test for verifying the activation in living body: growth-inhibition circle with/without rat liver S-9 mix; format: cell-based; settings: 20 min at 37° C., then 18 hours at 37° C.; for Sign: diameter of growth-inhibiting circle as percentage of that due to compound of formula (II), with the addition of S-9 mix: with the addition of S-9 mix (rat liver homogenate)
Description: On each flat culture plate prepared by adding 10^8 cells/ml of a preliminarily cultured Staphylococcus aureus IAM 1011 into 50 times by weight of Mueller-Hinton's agar culture medium, a penicillin cup of 8 mm in diameter was placed, and into each cup 0.1 ml of each of the compounds represented by the formula (I) or 0.1 ml of a cultured product of each of the compounds represented by the formula (I) together with a rat liver homogenate (containing a metabolism-activating enzyme, referred to as S-9 mix) was introduced. The diameter of each growth-inhibition circle formed around the cup after incubating the flat culture plate with the cup for 18 hours at 37° C. was measured, and the thus obtained value was compared to the value obtained by the same procedures except for using the compound represented by the formula (II), the starting compound instead of each of the compounds represented by the formula (I).
As a metabolism-activating enzyme, a rat liver homogenate (S-9, manufactured by Oriental Yeast Co.) was used in the following composition (referred to as S-9 mix, hereinafter):
After mixing 0.1 ml of a solution of the compound to be tested with 0.9 ml of S-9 mix or 0.9 ml of 0.1M phosphoric acid buffer solution, the mixture was subjected to shaking culture for 20 min at 37° C. to prepare a test reaction solution for use in the following experiment.
Staphylococcus aureus IAM 1011 was inoculated to Mueller-Hinton's culture medium and the inoculum was cultured for 18 hours at 37° C. and after adjusting the number of the bacterial cells to 10^8 /ml of the culture medium, 50 times by weight of the Mueller-Hinton's agar culture medium were added to the cultured medium to prepare flat culture plates.
After placing a penicillin-cup of 8 mm in diameter on each of the thus prepared flat culture plates, 0.1 ml of the above-mentioned test reaction solution was introduced into the penicillin-cup, and after leaving the system for 2 hours at 4° C., the system was incubated for 18 hour at 37° C., and the diameter of the growth-inhibition circle around the cup on the culture plate was determined.
The thus obtained diameter of the growth-inhibiting circle due to each of the compounds produced respectively in Examples 1 to 6 was compared to that due to the compound repesente by the formula (II), substituted cephalosporanic acid by percentage, and the following signs were respectively given to the respective compounds as follows: […]

[6] = system: A species of Lactobacillus; test: Effect on the intestinal bacterial colonies: number of a species of Lactobacillus in feces; format: in vivo, Lactobacillus (feces of female ICR mice); settings: oral, 500 mg/kg/day for 2 days; feces one day after administration; before administration 9.0
Description: (§7) After collecting the feces of a group of mice, each of the compounds represented by the formula (I) was orally administered to each of the group for 2 continued days at a daily dose rate of 500 mg per kg body weight, and the feces were again collected one day after the administration. Each portion of the thus collected, two kinds of the feces was cultured at 25° C. or 37° C. in a variety of culture media for one to five days to see the state of growth of the following bacteria which are present habitually in the intestine of the mouse: Escherichia coli, Pseudomonas aeruginosa, a streptococcus bacterial species, a lactobacillis bacteria, Lactobacillus bifidus and a bacterioides bacteria.
(§8) Each of the compounds, respectively produced in Examples 1 to 6 was orally administered for two continued days at a daily dosage of 500 mg/kg body weight to each of five female ICR mice of a group after 6 weeks of birth.
(§9) Each of the two fecal specimens respectively collected before and after one day of the administration was diluted with 100 times by weight of an anaerobic diluent (a phosphoric buffer solution) and was ground in a mortar, and 0.1 ml of the ground material was smeared on each of the following culture media for the following bacteria and the thus inoculated culture media were incubated under the following conditions. Thereafter, the number of the following bacteria was determined on each culture medium.
a species of LBS agar 37° C., for 5 days, […]

Escherichia coli = test: Effect on the intestinal bacterial colonies: number of Escherichia coli in feces; format: in vivo, Escherichia coli (feces of female ICR mice); settings: oral, 500 mg/kg/day for 2 days; feces one day after administration; before administration 7.0
Description: as §7, §8, §9
DHL agar 37° C., for 1 day, […]

Pseudomonas aeruginosa = test: Effect on the intestinal bacterial colonies: number of Pseudomonas aeruginosa in feces; format: in vivo, Pseudomonas aeruginosa (feces of female ICR mice); settings: oral, 500 mg/kg/day for 2 days; feces one day after administration; before administration <3.0
Description: as §7, §8, §9
NAC agar 37° C., for 1 day, […]

Lactobacillus bifidus = test: Effect on the intestinal bacterial colonies: number of Lactobacillus bifidus in feces; format: in vivo, Lactobacillus bifidus (feces of female ICR mice); settings: oral, 500 mg/kg/day for 2 days; feces one day after administration; before administration 8.0
Description: as §7, §8, §9
BS agar 37° C., for 5 days, […]

[7] = system: A species of Streptococcus; test: Effect on the intestinal bacterial colonies: number of a species of Streptococcus in feces; format: in vivo, Streptococcus (feces of female ICR mice); settings: oral, 500 mg/kg/day for 2 days; feces one day after administration; before administration 6.4
Description: as §7, §8, §9
a species of TATAC agar 37° C., for 1 day, […]

[8] = system: A species of Bacterioides; test: Effect on the intestinal bacterial colonies: number of a species of Bacterioides in feces; format: in vivo, Bacteroides (feces of female ICR mice); settings: oral, 500 mg/kg/day for 2 days; feces one day after administration; before administration 8.1
Description: as §7, §8, §9
a species of NBGT agar 37° C., for 5 days,7 -Bacteroides anaer

MIC ([3]; IAM1011, Mueller-Hinton agar, read-out: Minimum concentration of inhibiting growth of Staphylococcus aureus (MIC)) [µg/mL] | MIC ([4]; IFO12734, Mueller-Hinton agar, read-out: Minimum concentration of inhibiting growth of Escherichia coli (MIC)) [µg/mL] | Compound | mice alive on the 7th day of inoculation [1] | inoculated and administered mice alive on the 7th day of inoculation [2] | Minimum concentration of inhibiting growth of Staphylococcus aureus (MIC) ([3]; Mueller-Hinton agar) [microgram/ml] | Minimum concentration of inhibiting growth of Escherichia coli (MIC) ([4]; Mueller-Hinton agar) [microgram/ml] | Sign: diameter of growth-inhibiting circle as percentage of that due to compound of formula (II), with the addition of S-9 mix [5] | Sign: diameter of growth-inhibiting circle as percentage of that due to compound of formula (II), without adding S-9 mix [5] | Log10 value of the number of bacterial cells/g of feces, a species of Lactobacillus [6] | Log10 value of the number of bacterial cells/g of feces, Escherichia coli (Escherichia coli) | Log10 value of the number of bacterial cells/g of feces, Pseudomonas aeruginosa (Pseudomonas aeruginosa) | Log10 value of the number of bacterial cells/g of feces, Lactobacillus bifidus (Lactobacillus bifidus) | Log10 value of the number of bacterial cells/g of feces, a species of Streptococcus [7] | Log10 value of the number of bacterial cells/g of feces, a species of Bacterioides [8]
– | – | COC(=O)CNC(=O)c1ccc(NC(=O)C2=C(CSc3nnnn3C)CSC3N2C(=O)C3(NC(=O)CSCC#N)OC)cc1 (stereo not drawn) [Example 4, N-(4-carbomethoxymethylcarbamoylphenyl)-{7-beta-cyanomethylthioacetamido-7-alpha-methoxy-3-[(1-methyl-1H-tetrazol-5-yl)thio]methyl-3-cepheme-4-carboxylic}amide] | more than 16 mice | more than 70% | ≥ 100 | ≥ 100 | + (1 to 33) | - (0) | 9.3 Log10 cells/g of feces | 7.0 Log10 cells/g of feces | < 3.0 Log10 cells/g of feces | 7.9 Log10 cells/g of feces | 5.9 Log10 cells/g of feces | 8.3 Log10 cells/g of feces
≥ 100 | ≥ 100 | CO[C@@]1(NC(=O)CSCC#N)C(=O)N2C(C(=O)Nc3ccc(O)cc3)=C(CSc3nnnn3C)CS[C@@H]21 [Example 5, N-(4-hydroxyphenyl)-{7-beta-cyanomethylthioacetamido-7-alpha-methoxy-3-[(1-methyl-1H-tetrazol-5-yl)thio]methyl-3-cepheme-4-carboxylic}amide] | – | – | – | – | + (1 to 33) | - (0) | 9.0 Log10 cells/g of feces | 6.7 Log10 cells/g of feces | < 3.0 Log10 cells/g of feces | 8.2 Log10 cells/g of feces | 6.6 Log10 cells/g of feces | 7.9 Log10 cells/g of feces

From patent US4690920A, “Derivative of cephalosporanic acid and pharmaceutical composition comprising the same” (Kureha Kagaku Kogyo Kabushiki Kaisha, priority 1982, dated 1987)
